Results on 13 compounds are retold here after patent US20230027072A1, “IMPROVED METHODS, KITS, COMPOSITIONS AND DOSING REGIMENS FOR THE USE OF HETEROCYCLIC INHIBITORS OF ERK1 AND ERK2” (Asana Biosciences, LLC, priority 2019, published 2023).

Like-named read-outs stand apart in the source and are kept apart here.

Data set [1] deals with HCT116 (colorectal carcinoma, K Ras G13D) cells. Put plainly: Cell proliferation (Alamar Blue) assay, HCT116. In kind it is cell-based, human. Here is the method:
(§1) Cell Proliferation (Alamar Blue) Assay
(§2) HT-29 (colorectal carcinoma, B-RafV600E), HCT116 (colorectal carcinoma, K Ras G13D), A375 (melanoma, B-RafV600E) and SK-Mel2 (melanoma, NRAS Q61R) cells (obtained from ATCC, USA) were seeded (5000 cells/well) in 96-well tissue culture plate and incubated at 37° C./5% CO2 for 16-24 hours. The cells were then treated with compounds, at concentrations typically from 0.0005 to 10 uM prepared in 3-fold serial dilutions. The plates were then incubated for 72 h at 37° C./5% CO2 in a moist environment. Then Alamar Blue™ reagent (final concentration 1×) was added to each well and incubated for 1-3 h at 37° C./5% CO2. The plates were read on fluorescence reader at 540 nm excitation and 590 nm emission wavelengths. The IC50 values were subsequently determined using a sigmoidal dose-response curve (variable slope) using GraphPad Prism® 5 software. Compounds of the present disclosure caused inhibition of HT-29, HCT116, A375 and SK-Mel2 cell proliferation as determined in these assays.
For orientation: Resazurin is reduced to fluorescent resorufin, in cell work by metabolically active cells.

Data set [2] concerns phosphorylation of RSK1(S380) (the downstream target of ERK1/2). The data set is described as follows: Mechanistic (phospho-RSK1(S380) ELISA) assay in HT-29 cells. The format is cell-based, human. The settings on record: 2 h treatment, read-out: Mechanistic Cell Assay RSK1 Phos HT29 IC50. Here is the method:
Mechanistic (Phospho-RSK1(5380) ELISA) Assay
HT-29 cells (colorectal carcinoma, B-RafV600E); obtained from ATCC, USA) were seeded (60,000 cells/well) in a 96-well plate and incubated at 37° C./5% CO2 overnight and then treated with desired compound dilutions for 2 h. Medium was removed and cells were rinsed once with ice-cold 1×PBS, then 0.070 mL ice-cold 1× cell lysis buffer containing 1 mM PMSF was added to each well and the plate was incubated on a shaker for 2 h and 30 min at 4° C. The plate was then centrifuged for 20 min (×4000 rpm) at 4° C. and the supernatant was transferred to a new plate. Cell lysates were diluted with sample diluent at a ratio of 1:1. The ELISA was then carried out following the manufacturer's protocol (PathScan® phospho-RSK1(Ser380) Sandwich ELISA Kit, Cell Signaling Technologies). The plate was read at 450 nm within 30 min after adding STOP solution. The IC50 values were subsequently determined using a sigmoidal dose-response curve (variable slope) in GraphPad Prism® 5 software. Compounds of the present disclosure inhibited phosphorylation of RSK1(5380) (the downstream target of ERK1/2) as determined in this assay.

Data set [3] has as its system HT-29 (colorectal carcinoma, B-RafV600E) cells. The data set is described as follows: Cell proliferation (Alamar Blue) assay, HT-29. In kind it is cell-based, human. The note with it: read-out: Cell Proliferation Assay HT29 IC50. Here is the method:
as §1, §2

The nature of data set [4]: Phase 1 clinical study, pharmacokinetics (Example 39). In kind it is in vivo. The settings on record: human; for AUC / Cmax: plasma, oral, Day 15; for AUC: read-out: AUCtau, mean (CV %); for Cmax: read-out: Cmax, mean (CV %). An excerpt: This human clinical study is designed to determine the maximum tolerated dose of the compound of Example 349 [S)—N-(2-Amino-1-(3-chloro-5-fluorophenyl)ethyl)-1-(5-methyl-2-((tetrahydro-2H-pyran-4-yl)amino)pyrimidin-4-yl)-1H-imidazole-4-carboxamide mandelic acid salt] and evaluate its safety, tolerability, pharmacokinetics and pharmacodynamics. This study is an open-label, non-randomized uncontrolled, multicenter, dose escalation, and cohort expansion study in subjects with histologically or cytologically confirmed advanced solid tumors for which no standard therapy exists. The compound of Example 349 was formulated as described in Example 35 above for administration to the study subjects.
Daily dosing: This part of the study was conducted using an accelerated titration design in which patients were dosed once daily in cycles of 3 weeks. The accelerated phase of the study included single-patient cohorts and escalation increases of 100% up to 80 mg/day dose cohorts in the absence of DLTs or ≥Grade 2 drug-related toxicity. In the absence of any DLTs or ≥Grade 2 drug-related toxicity, the conventional 3+3 design commenced at 80 mg/day dose level.
Weekly dosing: Once weekly dosing of subject in 3+3 escalating dose cohorts was explored as warranted by the emerging pharmacokinetics and clinical trial experience. Once weekly dose escalation increments were up to 50%, based on the absence of DLTs or ≥Grade 2 drug-related toxicity and the available tablet strengths. Initiation of escalating daily and weekly higher dose levels occurred only following safety data review and agreement by the Safety Review Committee.
Part A included and Part B will include a screening period (up to 21 days) and an estimated treatment period for up to 12 months. […] At the end of treatment, a post-treatment period of 4 weeks will commence that concludes with an end-of-study visit.
The pharmacokinetics of the compound of Example 349 was evaluated in the study subjects with solid tumors following once-daily oral administration at 10-80 mg or QW administration at 80-350 mg. […] With once-daily dosing, the accumulation in Cmax and AUCtau were approximately 2-fold based on the 40 mg data. With once-weekly administration, drug accumulation in plasma was minimal. […] Results of these pharmacokinetic studies are further illustrated in FIGS. 6 and 7, which show the plasma concentration-time profiles for the QD and QW regimens. FIGS. 6A and 6B show the plasma concentration over time for the compound of Example 349 measured on day 1 and day 15 for daily dosing at 10 mg/kg, 20 mg/kg, 40 mg/kg, 60 mg/kg and 80 mg/kg. […] FIGS. 7A and 7B show the plasma concentration over time for the compound of Example 349 measured on day 1 and day 15 for weekly dosing at 80 mg/kg, 120 mg/kg, 180 mg/kg, 250 mg/kg and 350 mg/kg.

Setting [5] is: 40 mg daily (MTD for QD regimen).
Where [6] appears, read: 250 mg weekly (MTD for QW regimen).

Consider “1-(2- (benzo[d][1,3]diox- ol-5-ylamino)-5- methylpyrimidin-4- yl)-N-(1-(4- fluorophenyl)-2- hydroxyethyl)-1H- pyrrole-3- carboxamide [Example 172]”, for which the IC50 in data set [1] (72 h) is 0.25 to 0.5 µM; in data set [2], 0.1 to 0.25 µM.

As for `Cc1cnc(Nc2ccc(F)cc2)cc1-n1cnc(C(=O)NC(CN)c2ccccc2)c1` (single isomer, unassigned) [Example 227, N-(2-amino-1-phenylethyl)-1-(2-((4-fluorophenyl)-amino)-5-methyl-pyridin-4-yl)-1H-imidazole-4-carboxamide], the IC50 in data set [3] (Homo sapiens, HT-29, 72 h) fell in the range of 0.1 to 0.25 µM.

Consider `Cc1cnc(NC2CCOCC2)nc1-n1cnc(C(=O)NC(CN)c2ccc(Cl)s2)c1` (single isomer, unassigned; enantiomer #2) [Example 291, N-(2-amino-1-(5-chlorothiophen-2-yl)ethyl)-1-(5-methyl-2-((tetrahydro-2H-pyran-4-yl)amino)pyrimidin-4-yl)-1H-imidazole-4-carboxamide (enantiomer #2)], for which the results for the IC50 in data set [3] (72 h), in data set [1] (72 h) and in data set [2] were 0.25 to 0.5 µM, 0.5 to 2.5 µM and 0.25 to 0.5 µM, respectively.

In data set [1] (72 h), `Cc1cnc(Nc2ccc(F)cc2Cl)nc1-n1ccc(C(=O)N[C@H](CO)c2cccc(Cl)c2)c1` [Compound 29, (S)-1-(2-((2-Chloro-4-fluorophenyl)amino)-5-methylpyrimidin-4-yl)-N-(1-(3-chlorophenyl)-2-hydroxyethyl)-1H-pyrrole-3-carboxamide] showed an IC50 of 0.5 to 2.5 µM.

With `Cc1cnc(Nc2ccc(F)cc2)cc1-n1cnc(C(=O)NC(CN)c2ccccc2)c1` (centres unmarked) [Compound 191, N-(2-amino-1-phenylethyl)-1-(2-((4-fluorophenyl)amino)-5-methylpyridin-4-yl)-1H-imidazole-4-carboxamide], the IC50 in data set [3] (Homo sapiens, HT-29, 72 h) was in the range of 0.25 to 0.5 µM; in data set [1] (Homo sapiens, HCT-116, 72 h), 0.5 to 2.5 µM.

With `Cc1cnc(Nc2ccc3occc3c2)nc1-n1ccc(C(=O)NC(CO)c2cccc(Cl)c2)c1` (centres unmarked) [Example 68, 1-(2-(benzofuran-5-ylamino)-5-methylpyrimidin-4-yl)-N-(1-(3-chlorophenyl)-2-hydroxyethyl)-1H-pyrrole-3-carboxamide], the IC50 was 0.1 to 0.25 µM in data set [3] (Homo sapiens, HT-29, 72 h); 0.1 to 0.25 µM in data set [1] (Homo sapiens, HCT-116, 72 h); no more than 0.1 µM in data set [2] (Homo sapiens, HT-29, 2 h).

For `Cc1cnc(N[C@H]2CC[C@H](O)CC2)nc1-n1cnc(C(=O)N[C@H](CO)c2cccc(Cl)c2)c1` [Example 242, N-((S)-1-(3-chlorophenyl)-2-hydroxyethyl)-1-(2-(((1r,4S)-4-hydroxy-cyclohexyl)amino)-5-methyl-pyrimidin-4-yl)-1H-imidazole-4-carboxamide], the IC50 was 0.5 to 2.5 µM in data set [1] (Homo sapiens, HCT-116, 72 h) and 0.25 to 0.5 µM in data set [2] (Homo sapiens, HT-29, 2 h).

Take `Cc1cnc(NC2CCOCC2)nc1-n1cnc(C(=O)NC(c2cccc(Cl)c2)C(C)O)c1` (centres unmarked) [Example 252, N-(1-(3-chlorophenyl)-2-hydroxypropyl)-1-(5-methyl-2-((tetrahydro-2H-pyran-4-yl)amino)-pyrimidin-4-yl)-1H-imidazole-4-carboxamide]: the results for the IC50 in data set [1] (72 h) and in data set [2] were 0.25 to 0.5 µM and 0.1 to 0.25 µM, respectively.

`Cc1cnc(NC2CCOCC2)nc1-n1cnc(C(=O)NC(c2cccc(Cl)c2)C(C)O)c1` (centres unmarked) [Example 253, N-(1-(3-chlorophenyl)-2-hydroxypropyl)-1-(5-methyl-2-((tetrahydro-2H-pyran-4-yl)amino)-pyrimidin-4-yl)-1H-imidazole-4-carboxamide]: the IC50 in data set [1] (72 h) is greater than 2.5 µM; in data set [2], 0.5 to 2.5 µM.

As to `Cc1cnc(NC2CCOCC2)nc1-n1cnc(C(=O)NC(CN)c2ccc(Cl)s2)c1` (centres unmarked) [Example 274, N-(2-amino-1-(5-chlorothiophen-2-yl)ethyl)-1-(5-methyl-2-((tetrahydro-2H-pyran-4-yl)amino)pyrimidin-4-yl)-1H-imidazole-4-carboxamide], the IC50 in data set [2] (Homo sapiens, HT-29, 2 h) is 0.1 to 0.25 µM.

The term Tmax denotes the time at which the peak concentration occurs. In general, half-life refers to the time in which the quantity being followed falls by half. As usually defined, the Cmax is the peak of the concentration-time curve. Turning to `Cc1cnc(NC2CCOCC2)nc1-n1cnc(C(=O)N[C@H](CN)c2cc(F)cc(Cl)c2)c1` [Example 349], in data set [4] (in vivo), the “AUCtau values, dependence on dose” value is “dose dependent”; the “Cmax values, dependence on dose” value is listed as “dose dependent”; the “Total CL/F, dependence on dose” value is given as “independent of dose levels”; the “Vd/F, dependence on dose” value is listed as “independent of dose levels”. In data set [4] (in vivo, po), the time to peak (Tmax) is 1 to 4 h and the half-life was roughly 25 h. Further, in data set [4] (setting [5]), the AUC was found to be 492 ng·h/mL and the Cmax amounted to 61.5 ng/mL. Also, in data set [4] (setting [6]), the AUC was found to be 5500 ng·h/mL and the Cmax worked out at 495 ng/mL.

For “N-(1-(3-chloro- phenyl)-2-hydroxy- ethyl)-1-(2-((3- fluoro-2-methoxy- phenyl)amion)-5- methylpyrimidin-4- yl)-1H-pyrrole-3- carboxamide [Example 143]”, the IC50 in data set [1] (72 h) and in data set [2] was 0.25 to 0.5 µM in each case.

In the case of “N-((1s,3s)-1-(3- chlorophenyl)-3- hydroxycyclo- butyl)- 1-(5-methyl-2- ((tetrahydro-2H-4- yl)amino)pyrimi- din-4-yl)-1H- imidazole-4- carboxamide [Example 245]”, the IC50 in data set [2] was in the range of 0.25 to 0.5 µM.
